Like-named read-outs stand apart in the source and are kept apart here.
Assays:
[1] = Plasma pharmacokinetics after multiple oral doses (MAD cohorts); assay type: in vivo, human; settings: for AUC / Cmax / Tmax / half-life: human, plasma, oral; for AUC / Cmax: geometric mean (geometric CV%); for Tmax: median (range)
Excerpt: The MAD cohorts also used a randomized, double-blind, placebo-controlled, sequential design. […] For all study groups, blood samples for PK assessment were obtained predose, up to 12 times daily on day 1, and then at regular intervals throughout the study (see Supplemental Appendix for details). Standard noncompartmental methods were used to calculate PK parameters using Phoenix WinNonlin, version 7.0; actual sample collection times were used. […] Steady-state analysis In the M AD cohort, a steady- state an alysis for […] erfo rmed o n the ln-transformed plasma trough concentrat ion (Ctrough) values using Helmert contrasts. An analysis of variance (ANOVA) model was co nducted separately fo r each dose level; day w as in cluded as the fix ed effect. Helmert contrasts were d eveloped su ch that each time- point was compared with the mean of the subsequent time-points. Steady state was established at the time-point where no statistical differen ce (alpha = 5%, 2 -sided) was obs […] the subsequent time-points. 5

[2] = system: rat and dog; settings: cited from earlier work
[3] = system: healthy adults; experiment: Treatment-emergent adverse events, multiple ascending dose (MAD) cohorts; assay type: in vivo, human; settings: n = 6
Description: The MAD cohorts also used a randomized, double-blind, placebo-controlled, sequential design. […] Safety was assessed by the incidence of adverse events (AEs) and by the incidence of reduced LVEF. Treatment-emergent AEs (TEAEs) were defined as AEs that began or increased after study drug administration. All AEs were coded using the Medical Dictionary for Regulatory Activities, version 21.1, and graded using the National Cancer Institute Common Terminology Criteria for AEs (version 4.03) 5-point severity scale.[18] Each AE was judged as either related or unrelated to the study drug by the treating investigator. Clinical laboratory tests were obtained at regular intervals in all cohorts.

## CCc1nc(-c2ccc3c(c2)CC[C@H]3NC(=O)c2cnn(C)c2)no1 [Aficamten]
[1]; 5-mg dose once daily
  Day by the end of which steady state was achieved: 12 days
[1]; 7.5-mg dose once daily
  Day by the end of which steady state was achieved: 12 days
[1]; 10-mg dose once daily
  Day by the end of which steady state was achieved: 10 days
[1]; 5 mg, Day 1, 5 mg qd × 14 d, n = 6, read-out: AUC24
  AUC: 278 ng·h/mL
[1]; 5 mg, Day 1, 5 mg qd × 14 d, n = 6, read-out: Cmax
  Cmax: 28 ng/mL
[1]; 5 mg, Day 1, 5 mg qd × 14 d, n = 6, read-out: Tmax
  Tmax: 1.3 h
[1]; 5 mg, Day 14, 5 mg qd × 14 d, arithmetic mean ± SD, n = 6, read-out: t½ (converted)
  half-life: 86.4 ± 11.9 h
[1]; 5 mg, Day 14, 5 mg qd × 14 d, n = 6, read-out: AUCtau
  AUC: 1320 ng·h/mL
[1]; 5 mg, Day 14, 5 mg qd × 14 d, n = 6, read-out: Cmax,ss
  Cmax: 69 ng/mL
[1]; 5 mg, Day 14, 5 mg qd × 14 d, n = 6, read-out: Tmax,ss
  Tmax: 2.8 h
[1]; 7.5 mg, Day 1, 7.5 mg qd × 17 d, n = 6, read-out: AUC24
  AUC: 551 ng·h/mL
[1]; 7.5 mg, Day 1, 7.5 mg qd × 17 d, n = 6, read-out: Cmax
  Cmax: 69.3 ng/mL
[1]; 7.5 mg, Day 1, 7.5 mg qd × 17 d, n = 6, read-out: Tmax
  Tmax: 0.8 h
[1]; 7.5 mg, Day 17, 7.5 mg qd × 17 d, arithmetic mean ± SD, n = 6, read-out: t½ (converted)
  half-life: 76.9 ± 14.5 h
[1]; 7.5 mg, Day 17, 7.5 mg qd × 17 d, n = 6, read-out: AUCtau
  AUC: 2520 ng·h/mL
[1]; 7.5 mg, Day 17, 7.5 mg qd × 17 d, n = 6, read-out: Cmax,ss
  Cmax: 148 ng/mL
[1]; 7.5 mg, Day 17, 7.5 mg qd × 17 d, n = 6, read-out: Tmax,ss
  Tmax: 1 h
[1]; 10 mg, 5, 7.5, 10 mg once daily, read-out: Terminal elimination half-life, range across multiple-dose cohorts
  half-life: 77 to 86 h
[1]; 10 mg, Day 1, 10 mg qd × 14 d, n = 6, read-out: AUC24
  AUC: 547 ng·h/mL
[1]; 10 mg, Day 1, 10 mg qd × 14 d, n = 6, read-out: Cmax
  Cmax: 54.4 ng/mL
[1]; 10 mg, Day 1, 10 mg qd × 14 d, n = 6, read-out: Tmax
  Tmax: 1 h
[1]; 10 mg, Day 14, 10 mg qd × 14 d, arithmetic mean ± SD, n = 6, read-out: t½ (converted)
  half-life: 79.8 ± 14.1 h
[1]; 10 mg, Day 14, 10 mg qd × 14 d, n = 6, read-out: AUCtau
  AUC: 2630 ng·h/mL
[1]; 10 mg, Day 14, 10 mg qd × 14 d, n = 6, read-out: Cmax,ss
  Cmax: 141 ng/mL
[1]; 10 mg, Day 14, 10 mg qd × 14 d, n = 6, read-out: Tmax,ss
  Tmax: 2.5 h
[1]; once-daily dosing
  Attainment of steady state: ≤ 2 weeks
[2]; comparison in rats and dogs
  Exposure-response relationship shallower than that of mavacamten: roughly 3 fold
[2]; rat and dog
  Ventricular contractility: reduces ventricular contractility in a dose- and exposure-dependent manner
[3]; MAD 5 mg qd × 14 d
  Participants with any TEAE: 1 (17) n (%)
  TEAE: Chapped lips: 1 (17) n (%)
  TEAE: Cough: 1 (17) n (%)
  TEAE: Salivary hypersecretion: 1 (17) n (%)
[3]; MAD 10 mg qd × 14 d
  Participants with any TEAE: 2 (33) n (%)
  TEAE: Headache: 1 (17) n (%)
  TEAE: Upper respiratory tract infection: 1 (17) n (%)

Source: paper PMC9436819 (JACC: Basic to Translational Science, 2022)
